Experimental data taken from patent US20200236940A1, “2-(HET)ARYL-SUBSTITUTED FUSED HETEROCYCLE DERIVATIVES AS PESTICIDES” (Bayer Aktiengesellschaft, priority 2017, published 2020).

Experiments:
Type in all cases: in vivo
[1] = system: Ctenocephalides felis; test: Ctenocephalides felis oral test; conditions: application rate 100 ppm, after 2 days
Procedure: Ctenocephalides felis—Oral Test Solvent: dimethyl sulfoxide To produce a suitable active ingredient formulation, 10 mg of active ingredient are mixed with 0.5 ml of dimethyl sulfoxide. Dilution with citrated cattle blood gives the desired concentration. About 20 unfed adult cat fleas (Ctenocephalides felis) are placed into a chamber which is closed at the top and bottom with gauze. A metal cylinder whose bottom end is closed with parafilm is placed onto the chamber. The cylinder contains the blood/active ingredient formulation, which can be imbibed by the fleas through the parafilm membrane. After 2 days, the kill in % is determined. 100% means that all of the fleas have been killed; 0% means that none of the fleas have been killed.

[2] = system: Lucilia cuprina; test: Lucilia cuprina test; conditions: after 2 days, L1 larvae
Procedure: Lucilia cuprina Test Solvent: dimethyl sulfoxide To produce a suitable active ingredient formulation, 10 mg of active ingredient are mixed with 0.5 ml of dimethyl sulfoxide, and the concentrate is diluted with water to the desired concentration. About 20 L1 larvae of the Australian sheep blowfly (Lucilia cuprina) are transferred into a test vessel containing minced horsemeat and the active ingredient formulation of the desired concentration. After 2 days, the kill in % is determined. 100% means that all the larvae have been killed; 0% means that no larvae have been killed.

[3] = system: Meloidogyne incognita; test: Meloidogyne incognita test; conditions: application rate 20 ppm, after 14 days, formation of galls on lettuce
Procedure: Meloidogyne incognita Test Solvent: 125.0 parts by weight of acetone To produce a suitable active ingredient formulation, 1 part by weight of active compound is mixed with the stated amount of solvent and the concentrate is diluted to the desired concentration with water. Vessels are filled with sand, active compound solution, an egg/larvae suspension of the southern root-knot nematode (Meloidogyne incognita) and lettuce seeds. The lettuce seeds germinate and the plants develop. The galls develop on the roots. After 14 days, the nematicidal efficacy in % is determined by the formation of galls. 100% means that no galls were found; 0% means that the number of galls on the treated plants corresponds to the untreated control.

[4] = system: Myzus persicae; test: Myzus persicae oral test; conditions: 120 h, application rate 4 ppm, after 5 days, read-out: efficacy
Procedure: Myzus persicae—Oral Test Solvent: 100 parts by weight of acetone To produce a suitable active ingredient formulation, 1 part by weight of active ingredient is dissolved with the stated parts by weight of solvent and made up to the desired concentration with water. 50 μl of the active ingredient formulation are transferred into microtitre plates and made up to a final volume of 200 μl with 150 μl of IPL41 insect medium (33%+15% sugar). Subsequently, the plates are sealed with parafilm, which a mixed population of green peach aphids (Myzus persicae) within a second microtitre plate is able to puncture and imbibe the solution. After 5 days, the efficacy in % is determined. 100% means that all the aphids have been killed; 0% means that no aphids have been killed.

[5] = system: Myzus persicae; test: Myzus persicae spray test (MYZUPE), Chinese cabbage leaf discs; conditions: foliar, 120 h
Procedure: Myzus persicae—Spray Test [table] To produce a suitable active ingredient formulation, 1 part by weight of active ingredient is dissolved with the specified parts by weight of solvent and made up to the desired concentration with water containing an emulsifier concentration of 1000 ppm. To produce further test concentrations, the formulation is diluted with emulsifier-containing water. Discs of Chinese cabbage leaves (Brassica pekinensis) infested by all stages of the green peach aphid (Myzus persicae) are sprayed with an active ingredient formulation of the desired concentration. After 5 days, the efficacy in % is determined. 100% means that all the aphids have been killed; 0% means that no aphids have been killed. Myzus persicae—Spray Test (MYZUPE) [table] To produce a suitable active ingredient formulation, 1 part by weight of active ingredient is dissolved with the specified parts by weight of solvent and made up to the desired concentration with water containing an emulsifier concentration of 1000 ppm. To produce further test concentrations, the formulation is diluted with emulsifier-containing water. Discs of Chinese cabbage leaves (Brassica pekinensis) infested by all stages of the green peach aphid (Myzus persicae) are sprayed with an active ingredient formulation of the desired concentration. After the desired period of time, the efficacy in % is determined. 100% means that all the aphids have been killed; 0% means that no aphids have been killed.

[6] = system: Phaedon cochleariae; test: Phaedon cochleariae spray test, Chinese cabbage leaf discs; conditions: foliar, 168 h, application rate 100 g/ha, after 7 days, larvae, read-out: efficacy
Procedure: Phaedon cochleariae—Spray Test
(§1) To produce a suitable active ingredient formulation, 1 part by weight of active ingredient is dissolved with the specified parts by weight of solvent and made up to the desired concentration with water containing an emulsifier concentration of 1000 ppm. To produce further test concentrations, the formulation is diluted with emulsifier-containing water.
After 7 days, the efficacy in % is determined. 100% means that all the beetle larvae have been killed; 0% means that no beetle larvae have been killed.

[7] = system: Spodoptera frugiperda; test: Spodoptera frugiperda spray test, maize leaf discs; conditions: application rate 100 g/ha, after 7 days, caterpillars
Procedure: Spodoptera frugiperda—Spray Test [table] To produce a suitable active ingredient formulation, 1 part by weight of active ingredient is dissolved with the specified parts by weight of solvent and made up to the desired concentration with water containing an emulsifier concentration of 1000 ppm. To produce further test concentrations, the formulation is diluted with emulsifier-containing water. Leaf discs of maize (Zea mays) are sprayed with an active ingredient formulation of the desired concentration and, after drying, populated with caterpillars of the armyworm (Spodoptera frugiperda). After 7 days, the efficacy in % is determined. 100% means that all the caterpillars have been killed; 0% means that no caterpillar has been killed.

[8] = system: Nilaparvata lugens; test: Nilaparvata lugens spray test (NILALU); conditions: 96 h, 500 g of ai/ha, 4 dat, read-out: % efficacy
Procedure: Nilaparvata lugens—Spray Test (NILALU)
as §1, with “water. If the addition of ammonium salts or/and penetrants is required, these are each added in a concentration of 1000 ppm to the formulation solution.” for “water.”
Rice plants (Oryza sativa) are sprayed with an active ingredient formulation of the desired concentration and then populated with larvae of the brown planthopper (Nilaparvata lugens).
[…], the efficacy in % is determined. 100% means that all of the planthoppers have been killed; 0% means that none of the planthoppers have been killed.

[9] = system: Spodoptera frugiperda; test: Spodoptera frugiperda drench test (SPODFR D); conditions: soil, 336 h, 14 dat, read-out: % efficacy
Procedure: Spodoptera frugiperda—Drench Test (SPODFR D) [table] To produce a suitable active ingredient formulation, 1 part by weight of active ingredient is mixed with the specified amounts of solvent and emulsifier, and the concentrate is diluted with water to the desired concentration, it being necessary to take into account the volume of soil which is drenched. It should be ensured that a concentration of 40 ppm of emulsifier in the soil is not exceeded. To produce further test concentrations, water is used for dilution. Maize plants (Zea mays) in pots of soil are watered with an active ingredient formulation of the desired concentration and infected with caterpillars of the armyworm (Spodoptera frugiperda). After the desired time, the kill in % is determined. 100% means that all caterpillars have been killed; 0% means that none of the caterpillars have been killed.

[10] = system: Phaedon cochleariae; test: Phaedon cochleariae spray test (PHAECO), cabbage leaves; conditions: 168 h, 7 dat, read-out: % efficacy
Procedure: Phaedon cochleariae—Spray Test (PHAECO)
Solvent: 14 parts by weight of dimethylformamide
Emulsifier: alkylaryl polyglycol ether
as §1, with “water. If the addition of ammonium salts or/and penetrants is required, these are each added in a concentration of 1000 ppm to the formulation solution.” for “water.”
Cabbage leaves (Brassica oleracea) are sprayed with an active ingredient formulation of the desired concentration and populated with larvae of the mustard beetle (Phaedon cochleariae).
After the desired time, the kill in % is determined. 100% means that all the beetle larvae have been killed; 0% means that no beetle larvae have been killed.

With `CCS(=O)(=O)c1ccc(-n2ncn(-c3ccc(Cl)cc3)c2=O)nc1-c1nc2cc(C(F)(F)F)nc(C)c2n1C` [Example I-001] the “efficacy (kill)” value [1] was 100%, the “efficacy (kill)” value ([2]; application rate 20 ppm) was 100% and the “efficacy (kill)” value ([2]; application rate 100 ppm) was 100%. For the same compound, the nematicidal efficacy [3] was 90%, the pest or weed control at 4 ppm [4] was 90% and the Emax at 20 g/ha ([5]; MYZUPE, 20 g of ai/ha, 5 dat, read-out: % efficacy) was 90%. It also gave an Emax at 100 g/ha ([5]; MYZUPE, 100 g of ai/ha, 5 dat, read-out: % efficacy) of 90%, a pest or weed control at 20 g/ha ([5]; application rate 20 g/ha, after 5 days, read-out: efficacy) of 90% and a pest or weed control at 100 g/ha ([5]; application rate 100 g/ha, after 5 days, read-out: efficacy) of 90%. The pest or weed control at 100 g/ha [6] was 100%, the efficacy [7] was 100% and the Emax at 500 g/ha [8] was 60%. The Emax at 20 ppm [9] was 60% and the Emax at 0.8 ppm [10] was 100%.
